Reference: PubChem BioAssay (NCI)
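The compound was tested at five concentrations on cells cultured in 96-well plates, with a 48-hour exposure period. Abbreviation: GI50, concentration required for 50% inhibition of growth. At the TGI there is no net growth.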

Legend:
Assay in all cases: NCI-60 cell line screen, 48 h
MDA-MB-231 breast = system: MDA-MB-231 breast
T-47D breast = system: T-47D breast
DU-145 prostate = system: DU-145 prostate
PC-3 prostate = system: PC-3 prostate
SNB-78 CNS = system: SNB-78 CNS
KM20L2 colon = system: KM20L2 colon
HOP-18 NSCLC = system: HOP-18 NSCLC
DMS 273 small cell lung = system: DMS 273 small cell lung
DMS 114 small cell lung = system: DMS 114 small cell lung
M19-MEL melanoma = system: M19-MEL melanoma
DLD-1 colon = system: DLD-1 colon

SMILES | GI50 (MDA-MB-231 breast) [µM] | GI50 (T-47D breast) [µM] | TGI (T-47D breast) [µM] | GI50 (DU-145 prostate) [µM] | TGI (DU-145 prostate) [µM] | GI50 (PC-3 prostate) [µM] | TGI (PC-3 prostate) [µM] | TGI (MDA-MB-231 breast) [µM] | TGI (SNB-78 CNS) [µM] | TGI (KM20L2 colon) [µM] | TGI (HOP-18 NSCLC) [µM] | TGI (DMS 273 small cell lung) [µM] | TGI (DMS 114 small cell lung) [µM] | TGI (M19-MEL melanoma) [µM] | TGI (DLD-1 colon) [µM]
COc1ccc(F)cc1-c1ccnc2[nH]c(C3=CCN(C4CCC(CC(=O)O)CC4)CC3)cc12 (stereo not given) | 0.205 | 0.187 | > 100 | 0.346 | > 100 | 0.313 | > 100 | – | – | – | – | – | – | – | –
COC(=O)[C@@H](C)C[C@H](Cc1ccccc1)NC(=O)c1csc([C@@H](C[C@H](C(C)C)N(C)C(=O)[C@@H](NC(=O)[C@H]2CCCCN2C)C(C(F)(F)F)C(F)(F)F)OC(C)=O)n1 | 0.0734 | – | – | 0.047 | > 16.7 | 0.0452 | 3.87 | 3.06 | – | – | – | – | – | – | –
Nc1ccn(C2CC3OCC3O2)c(=O)n1 (stereo not given) | – | – | > 100 | – | > 100 | – | > 100 | > 100 | – | – | – | – | – | – | –
CCCCCC/C(CC(=O)CCC(=O)NCCc1ccccc1)=N\Nc1ccc([N+](=O)[O-])cc1[N+](=O)[O-] | – | – | – | – | – | – | – | – | > 100 | > 100 | > 100 | > 100 | 56.4 | > 100 | > 100
COc1cc2c(=O)n(CC3CCCCC3)c3c4cc[nH]c4ncc3c2cc1OC | 1.13 | 3.66 | > 50 | 4.96 | 19.6 | 2.23 | 12.2 | 7.59 | – | – | – | – | – | – | –
CN(C)CCOc1ccc2c(c1)C(=O)/C(=C\c1ncc([N+](=O)[O-])n1C)C2 | 0.418 | 1.76 | 11.4 | 0.234 | 0.661 | 0.965 | 4.82 | 2.33 | – | – | – | – | – | – | –
CCCCCCCCc1cc(O)ccc1O | 13 | 14.2 | 37.6 | 21.9 | 52.5 | 16 | 37.3 | 27.3 | – | – | – | – | – | – | –
O/N=C1\C(=C\c2ccc3c(c2)OCCO3)CCCC1C(NO)c1ccc2c(c1)OCCO2 (stereo not given) | – | – | – | – | – | – | – | – | > 100 | 35.6 | > 100 | 43 | 44.6 | 52.5 | > 100
N#C/C(=C1\OC(N)=C(c2ccc(Cl)cc2)C1=O)c1ccc(Cl)cc1 | – | – | – | – | – | – | – | – | 31.4 | 33 | 30.8 | 26.7 | 29.3 | 31.4 | 30.9
Cc1cc2nc(-c3ccc(O)c(O)c3)n(Cc3ccc(O)c(O)c3)c2cc1C | 24.1 | 31.8 | > 100 | 40.7 | > 100 | 22.5 | > 100 | 77.3 | – | – | – | – | – | – | –
COC(=O)C(/C(=N\O)C(=O)Nc1ccc(Br)cc1)c1nc2ccccc2[nH]c1=O (stereo not given) | – | – | – | – | – | – | – | – | > 100 | > 100 | > 100 | > 100 | 41.2 | 68.2 | > 100
CS(=O)(=O)CCNCc1ccoc1-c1ccc2ncnc(Nc3ccc(OCc4ccccc4)cc3)c2c1 | > 25 | 7.86 | > 25 | > 25 | > 25 | > 25 | > 25 | > 25 | – | – | – | – | – | – | –
COc1cc([C@@H]2c3cc4c(cc3[C@@H](NCc3cccc(F)c3)C3COC(=O)[C@@H]32)OCO4)cc(OC)c1O (stereo not given in full) | – | – | – | – | – | – | – | – | 57.7 | 21.2 | > 65 | 14.3 | 31.6 | – | > 65
CCN(CC)CCNc1ccc([N+](=O)[O-])c2nc3ccc(OC)cc3c(N)c12 | – | – | 3.16 | – | 3.07 | – | 2.78 | 3.25 | – | – | – | – | – | – | –
COc1ccc(/C=C/C(=O)c2ccc(Nc3nc(Nc4ccc(F)cc4)nc(Nc4ccc(F)cc4)n3)cc2)cc1 | 35.3 | 5.42 | 52.5 | 40.2 | > 100 | 5.06 | 21.4 | > 100 | – | – | – | – | – | – | –
CC(=O)/C(=C/N1CCN(C(=O)c2ccco2)C1=S)C(=O)c1ccccc1 | 9.46 | 4.29 | > 50 | 11 | 30.4 | 17.1 | > 50 | 19.8 | – | – | – | – | – | – | –
CC1/C(=N/O)CC(c2ccccc2)N(N=O)C1c1ccccc1 (stereo not given) | – | – | > 100 | – | > 100 | – | > 100 | > 100 | – | – | – | – | – | – | –
CCC(C)N1CN(c2ccccc2)C2(CCN(CCCC3(c4ccc(F)cc4)OCCO3)CC2)C1=O (stereo not given) | – | – | 42.5 | – | > 57.3 | – | 11.4 | 26.2 | – | – | – | – | – | – | –
Cc1nc(-n2nc(-c3ccccc3)cc2-c2ccccc2)sc1C(=O)/C=C/c1cccc([N+](=O)[O-])c1 | – | – | – | – | – | – | – | – | > 100 | 40.8 | 24.5 | 83.1 | 34.3 | 30.4 | 24.3
COC(=O)c1cc(C)[nH]c2c(C)cc3nc4ccccc4c3c12 | 2.44 | 3.2 | 12.9 | 11.8 | 24.7 | 4.86 | 18.8 | 10.5 | – | – | – | – | – | – | –
Cc1ccc(C)c(NC(=O)C(=O)Nn2c(=S)[nH]c3ccccc3c2=O)c1 | – | – | – | – | – | – | – | – | > 100 | > 100 | > 100 | > 100 | > 100 | – | > 100
C[C@H]1CC[C@@H]2[C@@H](C)[C@H]3[C@H](C[C@H]4[C@@H]5CC=C6C[C@@H](O)CC[C@]6(C)[C@H]5CC[C@]34C)N2C1 | – | – | > 100 | – | > 100 | – | > 100 | > 100 | – | – | – | – | – | – | –
C[C@H]1CCC2C(OC(=O)[C@@H]2CN(C)C)[C@]2(C)C(=O)C=CC12O (stereo not given in full) | – | – | 13.2 | – | 23.2 | – | 44.9 | 25.4 | – | 17.7 | 38.9 | 18.8 | 11.6 | 20.3 | 11
COc1ccc(C2C3=C(COC3=O)N(CCO)c3cc4c(cc32)CCC4)cc1 (stereo not given) | 10.9 | 3.87 | > 50 | 5.04 | 20.2 | 6.22 | > 50 | > 50 | – | – | – | – | – | – | –
C=C(CN1CCN(c2ccc(F)c(Cl)c2)CC1)c1ccc(C(=O)Nc2ccccc2N)cc1 | 1.81 | > 100 | > 100 | 8.76 | 40.4 | 2.34 | 9.23 | 6.81 | – | – | – | – | – | – | –
